Results taken from patent US9227921B2, “Salts and polymorphs of a tetracycline compound” (Paratek Pharmaceuticals, Inc., priority 2008, dated 2016).

Experiment: Temperature and moisture stability study (HPLC impurity profile)
Assay type: physicochemical
Procedure: A stability study was conducted on tosylate salt and mesylate salt of Compound 1, by monitoring changes in the high performance liquid chromatography (HPLC) impurity profiles for each salt when exposed to various temperatures and/or humidity conditions. Each sample was placed in a closed container and exposed to three controlled environments: refrigerated (5° C.), 20° C. and 60% relative humidity, and 40° C. and 75% relative humidity. […] The stability study of the crystalline tosylate salt was continued.
Samples were analyzed by the following reversed-phase HPLC impurity profile method at time points 0, 1, 2, 4 weeks (Table 7) and 3 months (Table 8) for the tosylate salt; and 0, 1 and 2 weeks for the mesylate salt (Table 9).
Reversed-phase HPLC analysis was conducted using a SYMMETRY SHIELD RP18 column (4.6×250 mm, 5 µm particle size), although analysis using a similar or equivalent column would be expected to yield similar results. The mobile phase components were 0.01 M ammonium acetate in water at pH 3.3 (A) and acetonitrile (B). The mobile phase composition was a gradient that increased from 6% to 15% B in five minutes, held at 15% B for 15 minutes, increased from 15% to 60% B in ten minutes, then from 60% to 90% B in two minutes, and then the system was re-equilibrated at 6% B for four minutes. The flow rate was 1.0 mL/minute, and the injection volume was 10.0 μL. The column temperature was maintained at 30° C. Detection was by ultraviolet light (UV) at 280 nm. The retention time for Compound 1 was approximately 15.7 minutes. The sample solution was prepared in mobile phase A to a final concentration of 2.0 mg/mL.

CN(C)c1cc(CNCC(C)(C)C)c(O)c2c1CC1CC3C(N(C)C)C(O)=C(C(N)=O)C(=O)C3(O)C(O)=C1C2=O.CS(=O)(=O)O (stereo not drawn) [mesylate salt of Compound 1]
Compound 1 (1 week, 5° C.): 98.2%
RRT 1.19 (1 week, 5° C.): 0.17%
RRT 1.26 (beta-epimer) (1 week, 5° C.): 1.6%
RRT 1.77 (1 week, 5° C.): 0.08%
Total Impurities (1 week, 5° C.): 1.85%
Compound 1 (1 week, 20° C. & 60% RH): 98.0%
RRT 1.19 (1 week, 20° C. & 60% RH): 0.17%
RRT 1.26 (beta-epimer) (1 week, 20° C. & 60% RH): 1.8%
RRT 1.77 (1 week, 20° C. & 60% RH): 0.09%
Total Impurities (1 week, 20° C. & 60% RH): 2.06%
Compound 1 (1 week, 40° C. & 75% RH): 97.1%
RRT 0.52 (1 week, 40° C. & 75% RH): 0.07%
RRT 0.77 (1 week, 40° C. & 75% RH): 0.05%
RRT 1.19 (1 week, 40° C. & 75% RH): 0.16%
RRT 1.26 (beta-epimer) (1 week, 40° C. & 75% RH): 2.6%
RRT 1.77 (1 week, 40° C. & 75% RH): 0.09%
Total Impurities (1 week, 40° C. & 75% RH): 2.97%
Compound 1 (2 weeks, 5° C.): 98.3%
RRT 0.93 (2 weeks, 5° C.): 0.06%
RRT 1.19 (2 weeks, 5° C.): 0.20%
RRT 1.26 (beta-epimer) (2 weeks, 5° C.): 1.3%
RRT 1.77 (2 weeks, 5° C.): 0.09%
Total Impurities (2 weeks, 5° C.): 1.65%
Compound 1 (2 weeks, 20° C. & 60% RH): 98.1%
RRT 0.93 (2 weeks, 20° C. & 60% RH): 0.06%
RRT 1.19 (2 weeks, 20° C. & 60% RH): 0.20%
RRT 1.26 (beta-epimer) (2 weeks, 20° C. & 60% RH): 0.11%
RRT 1.77 (2 weeks, 20° C. & 60% RH): 0.11%
Total Impurities (2 weeks, 20° C. & 60% RH): 1.87%
Compound 1 (2 weeks, 40° C. & 75% RH): 96.6%
RRT 0.52 (2 weeks, 40° C. & 75% RH): 0.05%
RRT 0.77 (2 weeks, 40° C. & 75% RH): 0.07%
RRT 0.93 (2 weeks, 40° C. & 75% RH): 0.06%
RRT 1.19 (2 weeks, 40° C. & 75% RH): 0.19%
RRT 1.26 (beta-epimer) (2 weeks, 40° C. & 75% RH): 0.11%
RRT 1.77 (2 weeks, 40° C. & 75% RH): 0.11%
Total Impurities (2 weeks, 40° C. & 75% RH): 3.38%
stability (5° C.): unstable
Compound 1 (Initial): 98.3%
RRT 1.19 (Initial): 0.20%
RRT 1.26 (beta-epimer) (Initial): 1.5%
Total Impurities (Initial): 1.70%
